Active and inactive are the calls of the source. The rule behind the calls is not given here.
Legend:
Quadruplex DNA [1] = assay: Binding affinity to FAM/TAMRA-labelled parallel KRAS G4 DNA (unknown origin) assessed as thermal stabilization at highest concentration at 10 to 95 degreeC by FRET analysis; assay type: nucleic-acid assay
Quadruplex DNA [2] = assay: Binding affinity to FAM/TAMRA-labelled parallel KRAS G4 DNA (unknown origin) assessed as thermal stabilization at lowest concentration at 10 to 95 degreeC by FRET analysis; assay type: nucleic-acid assay
dsDNA = assay: Binding affinity to double stranded DNA (unknown origin) assessed as thermal stabilization at 1 to 8 uM measured at 10 to 95 degreeC by FRET analysis; assay type: nucleic-acid assay; conditions: dose 1-8 µM
Quadruplex DNA [3] = assay: Binding affinity to FAM/TAMRA-labelled parallel c-MYC Pu24T G4 DNA (unknown origin) assessed as thermal stabilization at 1 to 8 uM measured at 10 to 95 degreeC by FRET analysis; assay type: nucleic-acid assay; conditions: dose 1-8 µM
Quadruplex DNA [4] = assay: Binding affinity to FAM/TAMRA-labelled c-MYC Pu22 G4 DNA (unknown origin) assessed as thermal stabilization at 1 to 8 uM measured at 10 to 95 degreeC by FRET analysis; assay type: nucleic-acid assay; conditions: dose 1-8 µM
Quadruplex DNA [5] = assay: Binding affinity to FAM/TAMRA-labelled c-KIT1 G4 DNA (unknown origin) assessed as thermal stabilization at 1 to 8 uM measured at 10 to 95 degreeC by FRET analysis; assay type: nucleic-acid assay; conditions: dose 1-8 µM
Quadruplex DNA [6] = assay: Binding affinity to FAM/TAMRA-labelled c-KIT2 G4 DNA (unknown origin) assessed as thermal stabilization at 1 to 8 uM measured at 10 to 95 degreeC by FRET analysis; assay type: nucleic-acid assay; conditions: dose 1-8 µM
Quadruplex DNA [7] = assay: Binding affinity to FAM/TAMRA-labelled 21g G4 DNA (unknown origin) assessed as thermal stabilization at 1 to 8 uM measured at 10 to 95 degreeC by FRET analysis; assay type: nucleic-acid assay; conditions: dose 1-8 µM
Quadruplex DNA [8] = assay: Binding affinity to FAM/TAMRA-labelled parallel 25ceb G4 DNA (unknown origin) assessed as thermal stabilization at 1 to 8 uM measured at 10 to 95 degreeC by FRET analysis; assay type: nucleic-acid assay; conditions: dose 1-8 µM
Quadruplex DNA [9] = assay: Binding affinity to FAM/TAMRA-labelled antiparallel Bom17 G4 DNA (unknown origin) assessed as thermal stabilization at 1 to 8 uM measured at 10 to 95 degreeC by FRET analysis; assay type: nucleic-acid assay; conditions: dose 1-8 µM
Quadruplex DNA [10] = assay: Binding affinity to FAM/TAMRA-labelled antiparallel TBA G4 DNA (unknown origin) assessed as thermal stabilization at 1 to 8 uM measured at 10 to 95 degreeC by FRET analysis; assay type: nucleic-acid assay; conditions: dose 1-8 µM
Quadruplex DNA [11] = assay: Binding affinity to FAM/TAMRA-labelled parallel c-MYC Pu24T G4 DNA (unknown origin) assessed as thermal stabilization in the presence of 15 equivalents of double stranded DNA by FRET competition assay; assay type: nucleic-acid assay
Quadruplex DNA [12] = assay: Binding affinity to FAM/TAMRA-labelled parallel KRAS G4 DNA (unknown origin) assessed as thermal stabilization in the presence of 15 equivalents of double stranded DNA by FRET competition assay; assay type: nucleic-acid assay
Quadruplex DNA [13] = assay: Binding affinity to FAM/TAMRA-labelled parallel c-MYC Pu24T G4 DNA (unknown origin) assessed as thermal stabilization by measuring change in melting temperature at 2 uM in the presence of 100 equivalents of double stranded DNA by FRET competition assay; assay type: nucleic-acid assay
Quadruplex DNA [14] = assay: Binding affinity to FAM/TAMRA-labelled parallel KRAS G4 DNA (unknown origin) assessed as thermal stabilization by measuring change in melting temperature at 2 uM in the presence of 100 equivalents of double stranded DNA by FRET competition assay; assay type: nucleic-acid assay
Quadruplex DNA [15] = assay: Binding affinity to parallel c-MYC Pu24T G4 DNA (unknown origin) assessed as change in topology at 5 uM by CD spectra analysis; assay type: nucleic-acid assay
Quadruplex DNA [16] = assay: Binding affinity to parallel c-MYC Pu24T G4 DNA (unknown origin) assessed as thermal stabilization by measuring change in melting temperature at 5 uM measured at 1:1 DNA to ligand ratio by CD spectra analysis; assay type: nucleic-acid assay
Quadruplex DNA [17] = assay: Binding affinity to 5'-Cy5-labelled parallel c-MYC Pu24T G4 DNA (unknown origin) assessed as dissociation constant by MST analysis; assay type: nucleic-acid assay
[18] = Antitumor activity against KPC mouse pancreatic cancer organoid expressing lentiviral modified GFP co-cultured with WT C57BL/6J mouse pancreatic stellate cells expressing mKate2 assessed as inhibition of cell growth incubated for 5 days by resazurin dye based fluorescence microscopic analysis; assay type: functional, tissue-based; conditions: 120 h
[19] = Cytotoxicity against wildtype C57BL/6J mouse cancer activated fibroblast cells assessed as inhibition of cell growth incubated for 5 days by resazurin dye based fluorescence microscopic analysis; assay type: toxicity

## Cc1cc(NCCc2c[nH]c3ccccc23)nc(Nc2nc(C)c3ccc4c(c3n2)CCC4)n1
Quadruplex DNA [1]
  Activity: Active
Quadruplex DNA [2]
  Activity: inactive
dsDNA
  Activity: inactive

## Cc1cc(NCCc2c[nH]c3ccccc23)nc(Nc2nc(C)c3ccc4c(c3n2)CCCC4)n1
Quadruplex DNA [1]
  Activity: Active
Quadruplex DNA [2]
  Activity: inactive
dsDNA
  Activity: inactive

## CCN(CC)CCCNc1cc(C)nc(Nc2nc(C)c3ccc4c(c3n2)CCC4)n1
Quadruplex DNA [3]
  Activity: Active
dsDNA
  Activity: inactive
Quadruplex DNA [4]
  Activity: Active
Quadruplex DNA [5]
  Activity: Active
Quadruplex DNA [6]
  Activity: Active
Quadruplex DNA [7]
  Activity: Active
Quadruplex DNA [8]
  Activity: inactive
Quadruplex DNA [9]
  Activity: inactive
Quadruplex DNA [10]
  Activity: inactive
Quadruplex DNA [11]
  Activity: Active
Quadruplex DNA [12]
  Activity: Active
Quadruplex DNA [13]
  ΔTm: 7 °C
Quadruplex DNA [14]
  ΔTm: 10 °C
Quadruplex DNA [15]
  Activity: inactive
Quadruplex DNA [16]
  ΔTm: 5 °C
Quadruplex DNA [17]
  Kd: 0.36 µM
[18]
  IC50: 0.193 µM
[19]
  IC50 at 5 days: 2.82 µM

Source: ChEMBL document CHEMBL5321208, “The effect of side chain variations on quinazoline-pyrimidine G-quadruplex DNA ligands” (Eur J Med Chem, 2023)
